# Measurements reported in patent US10844017B2, “Biaryl compound, preparation method and use thereof” (FUDAN UNIVERSITY, priority 2017, dated 2020).
# Molecular target: T1, RORγ receptor (B-RORγ LBD / Bioin-SRC1) (Homo sapiens, UniProt P51449)
# T1 construct: 40 nM B-RORγ LBD solution
# T1 sequence (P51449 269-508 limits assumed): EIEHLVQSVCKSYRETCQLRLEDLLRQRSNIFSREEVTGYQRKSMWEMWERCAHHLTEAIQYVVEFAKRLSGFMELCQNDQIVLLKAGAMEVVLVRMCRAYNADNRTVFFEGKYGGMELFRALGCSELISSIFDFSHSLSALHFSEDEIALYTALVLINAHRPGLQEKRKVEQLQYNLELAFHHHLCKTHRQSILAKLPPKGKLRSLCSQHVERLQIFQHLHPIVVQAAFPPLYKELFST
# T1 sequence (Q15788 676-700 partner limits assumed): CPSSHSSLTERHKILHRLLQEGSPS
# Experiment: Determination of agonistic activities on RORγ receptors in vitro (dual FRET)
# Assay type: biochemical
# Settings: average of at least two independent experiments
# Experimental: Determination of Agonistic Activities of Compounds on RORγ Receptors In Vitro The agonistic activities of compounds described herein on RORγ receptor were determined by dual fluorescence resonance energy transfer (dual FRET) experiments. The agonistic activity was expressed by half maximum effect concentration (EC50).
# 1) Preparation of RORγ Assay Buffer
# 100 mL of buffer solution was well mixed with […] DTT for use.
# 2) Preparation of Solutions of Compounds
# 3) Preparation of protein mixtures a) 40 nM B-RORγ LBD solution was mixed well with 20 nM SA-APC solution and incubated for 15 minutes at room temperature. Then the resulting mixture was further mixed well with 400 nM Biotin and incubated for another 10 minutes at room temperature. […]
# b) 40 nM Bioin-SRC1 solution was mixed well with 10 nM SA-eu solution and was incubated for 15 minutes at room temperature. Then the resulting mixture was further mixed well with 200 nM Biotin and was incubated for another 10 minutes at room temperature. […]
# d) A mixture (25 μL) of B-RORγ LBD/SA-APC and Bioin-SRC1/SA-eu together with a test compound was added to one of the wells of a 384-well plate, and then the plate was centrifuged for one minute at 1000 rpm, and incubated at room temperature for one hour. The data were read on an Envision microplate detector and EC50 values were calculated.
row,Structure (SMILES),EC50
1,"CCC(=O)Nc1cc(Cl)c(-c2ccc(CC(C)C)c(C#N)c2)c(Cl)c1 [Example 1, N-(2,6-Dichloro-3′-cyano-4′-isobutyl-[1,1′-biphenyl]-4-yl)propionamide]",10 to 50 nM
2,"CC(C)Cc1ccc(-c2c(Cl)cc(NC(=O)c3ccccc3)cc2Cl)cc1C#N [Example 3, N-(2,6-Dichloro-3′-cyano-4′-isobutyl-[1,1′-biphenyl]-4-yl)benzamide]",50 to 100 nM
3,"CC(C)CC(=O)Nc1cc(Cl)c(-c2ccc(CC(C)C)c(C#N)c2)c(Cl)c1 [Example 4, N-(2,6-dichloro-3′-cyano-4′-isobutyl-[1,1′-biphenyl]-4-yl)-3-methylbutanamide]",10 to 50 nM
4,"CC(C)Cc1ccc(-c2c(Cl)cc(NC(=O)Cc3ccccc3)cc2Cl)cc1C#N [Example 7, N-(2,6-Dichloro-3′-cyano-4′-isobutyl-[1,1′-biphenyl]-4-yl)-2-phenylacetamide]",10 to 50 nM
5,"CC(C)Cc1ccc(-c2c(Cl)cc(NC(=O)Cc3ccc(=O)[nH]c3)cc2Cl)cc1C#N [Example 8, N-(2,6-Dichloro-3′-cyano-4′-isobutyl-[1,1′-biphenyl]-4-yl)-2-(6-oxo-1,6-dihydropyridin-3-yl)acetamide]",10 to 50 nM
6,"CC(C)Cc1ccc(-c2c(Cl)cc(NC(=O)Cc3ccnn3C)cc2Cl)cc1C#N [Example 9B, N-(2,6-dichloro-3′-cyano-4′-isobutyl-[1,1′-biphenyl]-4-yl)-2-(1-methyl-1H-pyrazol-5-yl)acetamide]",10 to 50 nM
7,"CC(C)Cc1ccc(-c2c(Cl)cc(NC(=O)Cc3ccc(C#N)cc3)cc2Cl)cc1C#N [Example 10, 2-(4-Cyanophenyl)-N-(2,6-dichloro-3′-cyano-4′-isobutyl-[1,1′-biphenyl]-4-yl)acetamide]",10 to 50 nM
8,"CC(C)Cc1ccc(-c2c(Cl)cc(NC(=O)Cc3cccc(C#N)c3)cc2Cl)cc1C#N [Example 12, 2-(3-cyanophenyl)-N-(2,6-dichloro-3′-cyano-4′-isobutyl-[1,1′-biphenyl]-4-yl)acetamide]",10 to 50 nM
9,"CC(C)Cc1ccc(-c2c(Cl)cc(NC(=O)Cc3cccnc3)cc2Cl)cc1C#N [Example 14, N-(2,6-Dichloro-3′-cyano-4′-isobutyl-[1,1′-biphenyl]-4-yl)-2-(pyridin-3-yl)acetamide]",10 to 50 nM
10,"CC(C)Cc1ccc(-c2c(Cl)cc(NC(=O)Cc3ccncc3)cc2Cl)cc1C#N [Example 15, N-(2,6-Dichloro-3′-cyano-4′-isobutyl-[1,1′-biphenyl]-4-yl)-2-(pyridin-4-yl)acetamide]",10 to 50 nM
11,"CC(C)Cc1ccc(-c2c(Cl)cc(NC(=O)Cc3cccc(S(C)(=O)=O)c3)cc2Cl)cc1C#N [Example 18, N-(2,6-Dichloro-3′-cyano-4′-isobutyl-[1,1′-biphenyl]-4-yl)-2-(3-(methylsulfonyl)phenyl)acetamide]",10 to 50 nM
12,"CNS(=O)(=O)c1ccc(CC(=O)Nc2cc(Cl)c(-c3ccc(CC(C)C)c(C#N)c3)c(Cl)c2)cc1 [Example 22, N-(2,6-Dichloro-3′-cyano-4′-isobutyl-[1,1′-biphenyl]-4-yl)-2-(4-(N-methylsulfamoyl)phenyl)acetamide]",10 to 50 nM
13,"CC(C)Cc1ccc(-c2c(Cl)cc(NC(=O)Cc3ccc(P(C)(C)=O)cc3)cc2Cl)cc1C#N [Example 23, N-(2,6-Dichloro-3′-cyano-4′-isobutyl-[1,1′-biphenyl]-4-yl)-2-(4-(dimethylphosphoryl)phenyl)acetamide]",10 to 50 nM
14,"CC(C)Cc1ccc(-c2c(Cl)cc(NC(=O)Cc3ccc(CC(=O)O)cc3)cc2Cl)cc1C#N [Example 25, 2-(4-(2-((2,6-Dichloro-3′-cyano-4′-isobutyl-[1,1′-biphenyl]-4-yl)amino)-2-oxoethyl)phenyl)acetic acid]",< 10 nM
15,"CCS(=O)(=O)c1ccc(CC(=O)Nc2cc(Cl)c(-c3ccc(CC(C)C)c(F)c3)c(Cl)c2)cc1 [Example 27, N-(2,6-Dichloro-3′-fluoro-4′-isobutyl-[1,1′-biphenyl]-4-yl)-2-(4-(ethylsulfonyl)phenyl)acetamide]",10 to 50 nM
